Assay results reported in patent US20230293517A1, “ANTAGONIST COMPOUNDS” (AdoRx Therapeutics Limited, priority 2020, published 2023).
pKi: −log10 of the molar value. Where a name gives a salt, the structure may show the parent alone. Read-outs that look alike come from different tables or passages of the source.

Columns and labels:
[1] = target: human Adenosine A1 receptor (Homo sapiens (Human), UniProt P30542); experiment: Adenosine receptor TR-FRET binding assay (A1); details: inhibition of binding of 100 nM CA200645, CHO cell membranes
Chain of human Adenosine A1 receptor (P30542 whole entry): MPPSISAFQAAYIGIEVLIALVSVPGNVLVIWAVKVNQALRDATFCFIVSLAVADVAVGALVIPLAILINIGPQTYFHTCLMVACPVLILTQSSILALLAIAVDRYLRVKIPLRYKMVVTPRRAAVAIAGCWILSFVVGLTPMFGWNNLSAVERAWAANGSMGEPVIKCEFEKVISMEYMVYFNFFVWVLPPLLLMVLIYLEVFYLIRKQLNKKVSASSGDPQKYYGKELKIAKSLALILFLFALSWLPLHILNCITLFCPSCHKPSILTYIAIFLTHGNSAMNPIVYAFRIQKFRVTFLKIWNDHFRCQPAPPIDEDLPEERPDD
Experimental: (§1) Biological Example 1—Adenosine Receptor Time-Resolved Fluorescence Resonance Energy Transfer (TRFRET) Binding Assay
(§2) All FRET binding experiments were conducted at room temperature in white 384-well plates, in assay binding buffer containing 1×LabMed (Cisbio, France), 100 μg/mL saponin, 1% DMSO and 0.02% pluronic acid. Binding of the fluorescently labelled Adenosine receptor antagonist XAC (CA200645, FRET acceptor) to terbium-labelled A1, A2a, A2b and A3 adenosine receptors (FRET donors) was detected by time-resolved FRET due to the close proximity of the donor and acceptor in a binding event. To investigate the ability of unlabelled test compounds to bind to Adenosine A1, A2a, A2b and A3 receptors, dose response curves were constructed that determined the ability of a range of concentrations to inhibit the binding of 30 nM CA200645 to the A2b receptor and 100 nM CA200645 to the A1, A2a, and A3 receptor.
(§3) Serial dilution (1:3 dilutions) of test compounds in neat DMSO and transfer of a 400 nL sample of test compound into the assay plate was carried out using the Mosquito (TTP Labtech, UK). The compound samples were incubated for 2 hours at room temperature with a fixed concentration of CA200645 defined for each receptor (see above) and CHO cell membranes containing the human Adenosine A1 (0.5 μg/well), A2a (0.3 μg/well), A2b (1 μg/well) or A3 (1 μg/well) receptor in 40 μL of assay buffer. Total and non-specific binding of CA200645 was determined in the absence and presence of 10 μM XAC, respectively. Following 2 hours incubation, the level of CA200645 binding was detected on a Pherastar FSX (BMG Labtech, Germany) using standard TR-FRET settings. The terbium donor was excited with three laser flashes at a wavelength of 337 nm, and donor and acceptor emission was detected at 620 nm and 665 nm wavelengths, respectively. FRET ratios were obtained by multiplying the acceptor/donor ratio value by 10,000. Specific binding was determined by subtracting the non-specific binding FRET ratio from the total binding FRET ratio. Compound IC50 curves were analysed using GraphPad Prism 7.0 (GraphPad, USA) and Ki affinity values were determined from the obtained IC50 values using the method of Cheng and Prusoff.

[2] = target: human Adenosine A2a receptor (Homo sapiens (Human), UniProt P29274); experiment: Adenosine receptor TR-FRET binding assay (A2a); details: inhibition of binding of 100 nM CA200645, CHO cell membranes
Chain of human Adenosine A2a receptor (P29274 whole entry): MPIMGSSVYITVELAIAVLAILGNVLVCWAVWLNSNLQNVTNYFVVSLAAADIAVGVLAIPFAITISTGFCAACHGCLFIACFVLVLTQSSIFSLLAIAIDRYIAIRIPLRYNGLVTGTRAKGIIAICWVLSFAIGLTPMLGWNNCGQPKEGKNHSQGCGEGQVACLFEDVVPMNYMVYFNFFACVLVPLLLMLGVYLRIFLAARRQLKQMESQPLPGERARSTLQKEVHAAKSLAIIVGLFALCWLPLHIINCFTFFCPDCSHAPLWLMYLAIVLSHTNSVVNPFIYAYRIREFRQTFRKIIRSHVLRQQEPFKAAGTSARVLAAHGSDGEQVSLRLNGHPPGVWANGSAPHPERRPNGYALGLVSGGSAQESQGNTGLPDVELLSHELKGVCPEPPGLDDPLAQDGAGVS
Experimental: as §1, §2, §3

[3] = target: human Adenosine A2b receptor (Homo sapiens (Human), UniProt P29275); experiment: Adenosine receptor TR-FRET binding assay (A2b)
Chain of human Adenosine A2b receptor (P29275 whole entry): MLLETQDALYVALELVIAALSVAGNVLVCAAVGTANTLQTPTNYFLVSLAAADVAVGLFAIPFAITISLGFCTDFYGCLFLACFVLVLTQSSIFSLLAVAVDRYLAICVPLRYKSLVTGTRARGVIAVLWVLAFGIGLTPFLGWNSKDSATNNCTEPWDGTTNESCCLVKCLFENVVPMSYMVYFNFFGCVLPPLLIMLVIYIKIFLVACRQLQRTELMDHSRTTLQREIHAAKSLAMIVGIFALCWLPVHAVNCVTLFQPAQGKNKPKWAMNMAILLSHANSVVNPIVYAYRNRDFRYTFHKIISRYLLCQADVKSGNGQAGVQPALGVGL
Experimental: as §1, §2, §3

[4] = target: human Adenosine A3 receptor (Homo sapiens (Human), UniProt P0DMS8); experiment: Adenosine receptor TR-FRET binding assay (A3); details: inhibition of binding of 100 nM CA200645, CHO cell membranes
Chain of human Adenosine A3 receptor (P0DMS8 whole entry): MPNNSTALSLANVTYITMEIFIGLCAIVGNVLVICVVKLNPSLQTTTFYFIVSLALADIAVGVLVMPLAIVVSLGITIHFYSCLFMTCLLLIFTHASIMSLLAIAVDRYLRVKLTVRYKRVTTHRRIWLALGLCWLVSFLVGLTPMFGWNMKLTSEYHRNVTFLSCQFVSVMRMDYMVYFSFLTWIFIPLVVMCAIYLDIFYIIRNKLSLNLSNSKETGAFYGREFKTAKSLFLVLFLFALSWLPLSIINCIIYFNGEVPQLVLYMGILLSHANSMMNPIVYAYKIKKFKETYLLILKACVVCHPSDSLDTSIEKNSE
Experimental: as §1, §2, §3

[5] = TR-FRET, inhibition of binding of 30 nM CA200645, CHO cell membranes

| Compound | pKi [1] | pKi [2] | pKi [3] | pKi [4] | pKi [3, 5] |
| --- | --- | --- | --- | --- | --- |
| Cc1cc(-c2sc(NC(=O)N3C[C@H]4OCCN(C)[C@H]4C3)nc2-c2cccc(C#N)c2)cc(C(F)F)n1 (racemic) [Example 6.106, rac-(4aS,7aR)-N-[4-(3-Cyanophenyl)-5-[2-(difluoromethyl)-6-methyl-4-pyridyl]thiazol-2-yl]-4-methyl-2,3,4a,5,7,7a-hexahydropyrrolo[3,4-b][1,4]oxazine-6-carboxamide] | 6.86 | 8.97 | 8.35 | 6.71 |  |
| Cc1cc(-c2sc(NC(=O)N3C[C@@H]4OCCN(C)[C@H]4C3)nc2-c2cccc(C#N)c2)cc(C(F)F)n1 (racemic) [Example 6.109, rac-(4aS,7aS)-N-[4-(3-Cyanophenyl)-5-[2-(difluoromethyl)-6-methyl-4-pyridyl]thiazol-2-yl]-4-methyl-2,3,4a,5,7,7a-hexahydropyrrolo[3,4-b][1,4]oxazine-6-carboxamide] | 6.33 | 7.97 | 7.34 | 6.53 |  |
| Cc1cc(-c2sc(NC(=O)N3C[C@@H]4NCCO[C@H]4C3)nc2-c2cccc(C#N)c2)cc(C(F)F)n1 (racemic) [Example 14.1, rac-(4aS,7aS)—N-[4-(3-Cyanophenyl)-5-[2-(difluoromethyl)-6-methyl-4-pyridyl]thiazol-2-yl]-3,4,4a,5,7,7a-hexahydro-2H-pyrrolo[3,4-b][1,4]oxazine-6-carboxamide 2,2,2-trifluoroacetic acid salt] | 7.39 | 8.57 | 8.07 | 6.95 |  |
| Cc1cc(-c2sc(NC(=O)N3C[C@@H]4NCCO[C@@H]4C3)nc2-c2cccc(C#N)c2)cc(C(F)F)n1 (racemic) [Example 14.2, rac-(4aS,7aR)—N-[4-(3-Cyanophenyl)-5-[2-(difluoromethyl)-6-methyl-4-pyridyl]thiazol-2-yl]-3,4,4a,5,7,7a-hexahydro-2H-pyrrolo[3,4-b][1,4]oxazine-6-carboxamide 2,2,2-trifluoroacetic acid salt] | 6.74 | 8.68 | 8.08 | 6.88 |  |
| Cc1cc(-c2sc(NC(=O)N3CCOCC3)nc2-c2cccc(C#N)c2)cc(Cl)n1 [Example 1, N-[5-(2-Chloro-6-methyl-4-pyridyl)-4-(3-cyanophenyl)thiazol-2-yl]morpholine-4-carboxamide] | 8.05 | 9.38 |  | 6.52 | 8.96 |
| Cc1cc(-c2sc(NC(=O)N3CCC[C@@H]3C(C)(C)O)nc2-c2cccc(C#N)c2)cc(Cl)n1 [Example 3, (2R)—N-[5-(2-Chloro-6-methyl-4-pyridyl)-4-(3-cyanophenyl)thiazol-2-yl]-2-(1-hydroxy-1-methyl-ethyl)pyrrolidine-1-carboxamide] | 6.00 | 7.23 |  | 5.70 | 7.30 |
| Cc1cc(-c2sc(NC(=O)N3CCCC3)nc2-c2cccc(C#N)c2)cc(Cl)n1 [Example 3.2] | 7.92 | 9.40 |  | 5.98 | 9.15 |
| Cc1cc(-c2sc(NC(=O)N3CCOCC3C(C)(C)O)nc2-c2cccc(C#N)c2)cc(Cl)n1 (centres unmarked) [Example 3.4] |  | 7.84 |  | 5.69 | 7.84 |
| Cc1cc(-c2sc(NC(=O)N3CCN[C@H](C(=O)O)C3)nc2-c2cccc(C#N)c2)cc(Cl)n1 [Example 3.5] | 6.36 | 7.94 |  | 6.03 | 7.94 |
| Cc1cc(-c2sc(NC(=O)N3C[C@H](C)NC[C@@H]3C)nc2-c2cccc(C#N)c2)cc(C)n1 [Example 7.7, (2S,5S)—N-[4-(3-Cyanophenyl)-5-(2,6-dimethyl-4-pyridyl)thiazol-2-yl]-2,5-dimethyl-piperazine-1-carboxamide] | 7.31 | 8.28 |  |  | 7.74 |
| Cc1cc(-c2sc(NC(=O)N3[C@H](C)CNC[C@H]3C)nc2-c2cccc(C#N)c2)cc(C)n1 [Example 7.8, (2R,6R)—N-[4-(3-Cyanophenyl)-5-(2,6-dimethyl-4-pyridyl)thiazol-2-yl]-2,6-dimethyl-piperazine-1-carboxamide] | 6.71 | 8.17 |  |  | 7.22 |
| Cc1cc(-c2sc(NC(=O)N3CCNCC3(C)C)nc2-c2cccc(C#N)c2)cc(C)n1 [Example 7.9, N-[4-(3-Cyanophenyl)-5-(2,6-dimethyl-4-pyridyl)thiazol-2-yl]-2,2-dimethyl-piperazine-1-carboxamide] | 7.21 | 7.99 |  |  | 7.35 |
| Cc1cc(-c2sc(NC(=O)N3CCNCC34CCC4)nc2-c2cccc(C#N)c2)cc(C)n1 [Example 7.10, N-[4-(3-Cyanophenyl)-5-(2,6-dimethyl-4-pyridyl)thiazol-2-yl]-5,8-diazaspiro[3.5]nonane-5-carboxamide] | 6.91 | 7.53 |  |  | 7.05 |
| Cc1cc(-c2sc(NC(=O)N3C[C@@H](C)N[C@@H](C)C3)nc2-c2cccc(C#N)c2)cc(C)n1 [Example 13, (3S,5R)—N-[4-(3-Cyanophenyl)-5-(2,6-dimethyl-4-pyridyl)thiazol-2-yl]-3,5-dimethyl-piperazine-1-carboxamide] | 6.43 | 7.61 |  |  | 6.71 |
| Cc1cc(-c2sc(NC(=O)N3CC4(CNCCO4)C3)nc2-c2cccc(C#N)c2)cc(C)n1 [Example 13.1, N-[4-(3-Cyanophenyl)-5-(2,6-dimethyl-4-pyridyl)thiazol-2-yl]-5-oxa-2,8-diazaspiro[3.5]nonane-2-carboxamide] | 6.79 | 9.19 |  |  | 8.72 |
| Cc1cc(-c2sc(NC(=O)N3CCNC4(CC4)C3)nc2-c2cccc(C#N)c2)cc(C)n1 [Example 13.2, N-[4-(3-Cyanophenyl)-5-(2,6-dimethyl-4-pyridyl)thiazol-2-yl]-4,7-diazaspiro[2.5]octane-7-carboxamide] | 7.57 | 8.72 |  |  | 8.36 |
| Cc1cc(-c2sc(NC(=O)N3C[C@H](C)N[C@@H](C)C3)nc2-c2cccc(C#N)c2)cc(C)n1 [Example 13.3, (3S,5S)-N-[4-(3-Cyanophenyl)-5-(2,6-dimethyl-4-pyridyl)thiazol-2-yl]-3,5-dimethyl-piperazine-1-carboxamide] | 6.49 | 7.94 |  |  | 7.11 |
| Cc1cc(-c2sc(NC(=O)N3CCN[C@H](C#N)C3)nc2-c2cccc(C#N)c2)cc(C)n1 [Example 13.14, (3S)-3-Cyano-N-[4-(3-cyanophenyl)-5-(2,6-dimethyl-4-pyridyl)thiazol-2-yl]piperazine-1-carboxamide] | 7.89 | 9.74 |  |  | 8.38 |
| Cc1cc(-c2sc(NC(=O)N3CCN[C@@H](C#N)C3)nc2-c2cccc(C#N)c2)cc(C)n1 [Example 13.15, (3R)-3-Cyano-N-[4-(3-cyanophenyl)-5-(2,6-dimethyl-4-pyridyl)thiazol-2-yl]piperazine-1-carboxamide] | 7.39 | 9.48 |  |  | 8.29 |
| Cc1cc(-c2sc(NC(=O)N3CCNCC3C3CC3)nc2-c2cccc(C#N)c2)cc(C)n1 (centres unmarked) [Example 14.4, N-[4-(3-Cyanophenyl)-5-(2,6-dimethyl-4-pyridyl)thiazol-2-yl]-2-cyclopropyl-piperazine-1-carboxamide] | 7.24 | 8.24 |  |  | 7.43 |
| Cc1cc(-c2sc(NC(=O)N3CCNCC3CC3CC3)nc2-c2cccc(C#N)c2)cc(C)n1 (centres unmarked) [Example 14.5, N-[4-(3-Cyanophenyl)-5-(2,6-dimethyl-4-pyridyl)thiazol-2-yl]-2-(cyclopropylmethyl)piperazine-1-carboxamide] | 7.21 | 9.37 |  |  | 8.60 |
| Cc1cc(-c2sc(NC(=O)N3CCNC(C)(C)C3)nc2-c2cccc(C#N)c2)cc(C)n1 [Example 14.6, N-[4-(3-Cyanophenyl)-5-(2,6-dimethyl-4-pyridyl)thiazol-2-yl]-3,3-dimethyl-piperazine-1-carboxamide] | 6.73 | 7.81 |  |  | 7.48 |
| Cc1cc(-c2sc(NC(=O)N3CC4(COC4)C3)nc2-c2cccc(C#N)c2)cc(C)[n+]1[O-] [Example 17, N-[4-(3-Cyanophenyl)-5-(2,6-dimethyl-1-oxido-pyridin-1-ium-4-yl)thiazol-2-yl]-2-oxa-6-azaspiro[3.3]heptane-6-carboxamide] | 7.92 | 8.89 |  |  | 8.00 |
